Laboratory results taken from patent publication US10238713B2, “Cyclic tetrapeptides and therapeutic applications thereof” (LODZ UNIVERSITY OF TECHNOLOGY, priority 2010, dated 2019).
Non-standard residues stand in square brackets, D forms with d. Residues, ends and D or L forms follow the SMILES beside them. Oic = O=C(O)[C@@H]1C[C@@H]2CCCC[C@@H]2N1; Phe(4-Cl) = N[C@@H](Cc1ccc(Cl)cc1)C(=O)O; Hyp = O=C(O)[C@@H]1C[C@@H](O)CN1; Tic = O=C(O)[C@@H]1Cc2ccccc2CN1; β3hF = N[C@H](CC(=O)O)Cc1ccccc1; ΔPro = O=C(O)[C@@H]1C=CCN1

Legend:
[1] = system: mice, carrageenan air pouch; assay: Carrageenan air-pouch test (exudate cell number); type: in vivo, mouse; conditions: peptides 100 μg i.p. one hour before carrageenan, 24 h; FIGS. 18A-18B
Experimental: (§1) In this and the air-pouch test, 1.5 mg peptide was dissolved in 300 μl of DMSO, then in 0.9% NaCl to achieve the desired dose (250 μg/0.2 ml or 100 μg/0.2 ml). Carrageenan (Sigma) was dissolved in 0.9% aqueous NaCl (overnight). 50 μl of 2% carrageenan solution was injected intradermally into hind foot pads. The peptides were given in a single 250 μg dose (0.2 ml) per mouse intraperitoneally (i.p.), 30 min before carrageenan administration. Dexamethasone (DEX) (Dexaven, Polfa, Poland), a reference drug, was given i.p. in dose 25 μg per mouse. Control mice were administered i.p. appropriately diluted solvent (DMSO in aqueous NaCl) instead of peptides. The foot pads of “background” (BG) mice were injected with 50 μl of 0.9% aqueous NaCl. Foot pad edema was measured with a spring caliper, 2 h, 3 h and 4 h after administration of carrageenan. The results are presented in FIGS. 17A, 17B and 17C as mean values of the antigen-specific increase of the foot pad thickness measured in 5 mice in each experimental group and expressed in mm ±SE (only results from measurements 4 h following administration of carrageenan are presented in figures). Statistics: FIG. 17A: Control vs: DEX P=0.0001; 4B8M P=0.0001; P25 NS (P=1.0000); P28 NS (P=1.0000); P31 NS (P=0.0528); P35 P=0.0008 (ANOVA of Kruskal-Wallis); FIG. 17B: Statistics: Control vs: P22 NS (P=1.0000); P26 NS (P=1.0000); P27 P=0.0050; P30 P=0.0004; P33-b NS (P=1.0000); SP00-b P=0.0001; P00S-b NS (P=1.0000) (ANOVA of Kruskal-Wallis); FIG. 17C: Statistics: Control vs: P21 P=0.0147; P23-2 P=0.0083; P24 P=0.0001; P29 NS (P=0.9999); P32 P=0.0001; P33 NS (P=0.6806); P34 NS (P=0.1920) (ANOVA).
Air pouches were formed by subdermal injection into the dorsal region (in a halothane anesthesia) of 5 cm^3 of air (needle 23G x 11/4, 5 ml syringe). On day 3 the air pouches were given an additional 2 ml of air and an inflammatory process was elicited by an intra-pouch injection of 1% of carrageenan in 0.5 ml of 0.9% aqueous NaCl. The peptides were given i.p. at a dose of 100 μg one hour before carrageenan injection into the air pouch. The mice from the “background” (BG) group were given 0.9% aqueous NaCl i.p. and 0.9% aqueous NaCl into the air pouches. Control mice were given appropriately diluted DMSO i.p. and carrageenan into the air pouches. 24 h after carrageenan injection, the mice were sacrificed by cervical dislocation, the air pouches were supplemented with 1 ml of 0.9% aqueous NaCl and the exudates from the air pouches were aspirated using a syringe. The exudates were diluted with 0.9% aqueous NaCl and the cells were counted in a Bürker hemocytometer. Data are presented in FIGS. 18A and 18B as the mean values from 10 mice/group (cell number×10^6 per mouse) ±SE. Then the cells were centrifuged and 0.1 ml of the supernatant was saved for TNF-α determination (see Determination of TNF-α activity, above). The cell pellets were used to perform smears on microscopic glasses, which were stained with Giemsa and May-Grünwald reagents for evaluation of mast cell degranulation. Cell analysis was performed by a histologist using a light microscope and 1000× magnification. The content of intact and degranulated mast cells is given in percentage (mean values from 10 mice/group) ±SE. Statistics: FIG. 18A: BG vs Control P=0.0000; Control vs: DEX P=0.0034; 4B8M P=0.0005; P22 NS (P=0.7275); P26 P=0.0032; P27 NS (P=0.0659); P35 NS (P=1.0000) (ANOVA of Kruskal-Wallis); FIG. 18B: Control vs: P21 NS (P=0.322); P23-2 P=0.0020; P24 P=0.0001; P25 P=0.0418; P28 NS (P=0.3502); P29 NS (P=0.0582); P30 P=0.0006; P31 P=0.0078; P32 P=0.0340; P33 NS (P=0.9993); P34 NS (p=0.0566) (ANOVA).

human PBMC = assay: Toxicity test: PBMC survival in 24 h culture (MTT); conditions: ANOVA, FIGS. 8A-8F (4B8M repeated per figure)
Experimental: (§2) PBMC were isolated by centrifugation on Ficoll-uropoline gradient (density 1.077 g/ml) (Lymphoprep; PAA Laboratories), at 800×g for 20 min at 4° C. The interphase cells, consisting of lymphocytes (20%) and monocytes (80%) were then washed three times with Hanks' medium and re-suspended in the culture medium at density of 2×10^6 cells/ml.
Appropriate dilutions of DMSO in RPMI 1640 medium were used as controls. Cell survival was determined by the MTT colorimetric method (Hansen et al., J. Immunol. Methods, 1989, pp. 203-210). The data are presented as a mean OD value from quadriplicate wells ±standard error (SE). The cultures “Control (−)” contained only cells in the culture medium.
The assay was performed per Hansen et al., J. Immunol. […] Briefly, 25 μl of MTT (5 mg/ml) stock solution was added per well at the end of cell incubation and the plates were incubated for 3 h in a cell culture incubator. Then, 100 μl of the extraction buffer (20% SDS with 50% DMF, pH 4.7) was added. After additional overnight incubation, the optical density was measured at 550 nm (Dynatech 5000).

[2] = system: mice, carrageenan-induced foot pad edema; assay: Carrageenan-induced foot-pad edema test; type: in vivo, mouse; conditions: 4 h after carrageenan; peptides 250 μg i.p., DEX 25 μg i.p., 30 min before; FIGS. 17A-17C
Experimental: as §1

[3] = system: PHA-induced proliferation of human peripheral blood mononuclear cells (PBMC); assay: Proliferative response of PBMC to PHA (MTT); type: cell-based; conditions: four-day incubation, FIGS. 9A-9F
Experimental: as §2
The isolated PBMC were distributed into 96-well flat-bottom plates in 100 μl aliquots (2×10^5 cells/well). PHA was used at concentration of 5 μg/ml. The compounds were tested at concentrations of 1, 10 and 100 μg/ml. DMSO at appropriate dilutions served as control. After a four-day incubation in a cell culture incubator, the proliferative response of cells was determined by the colorimetric MTT method (Hansen et al., J. Immunol. Methods, 1989, pp. 203-210). The data are presented as a mean OD value from quadriplicate wells ±standard error (SE). The cultures “Control (−)” contained no mitogen (PHA). The cultures “Control (PHA)” contained PHA but not cyclic tetrapeptides.
Briefly, 25 μl of MTT (5 mg/ml) stock solution was added per well at the end of cell incubation and the plates were incubated for 3 h in a cell culture incubator. Then, 100 μl of the extraction buffer (20% SDS with 50% DMF, pH 4.7) was added. After additional overnight incubation, the optical density was measured at 550 nm (Dynatech 5000).

O=C1C[C@H](Cc2ccccc2)NC(=O)[C@@H]2CCCN2C(=O)[C@@H]2CCCN2C(=O)[C@H](Cc2ccc(Cl)cc2)N1 [I-V] (cyclo(PP[β3hF][Phe(4-Cl)]))
air pouch exudate cell number, P vs Control [1]: 0.0001
PBMC survival, P vs DMSO at appropriate dilution (human PBMC; 10 μg/ml): 0.9999
PBMC survival, P vs DMSO at appropriate dilution (human PBMC; 100 μg/ml): 0.1122
foot pad edema (increase of foot pad thickness), P vs Control [2]: 0.0001
PHA-induced PBMC proliferation, P vs DMSO at appropriate dilution ([3]; 10 μg/ml): 1.0000
PHA-induced PBMC proliferation, P vs DMSO at appropriate dilution ([3]; 100 μg/ml): 0.4681

O=C1C[C@H](Cc2ccccc2)NC(=O)[C@@H]2CCCN2C(=O)[C@@H]2C[C@@H](O)CN2C(=O)[C@H](Cc2ccccc2)N1 [I-R] (cyclo(F[Hyp]P[β3hF]))
air pouch exudate cell number, P vs Control [1]: 0.322
PBMC survival, P vs DMSO at appropriate dilution (human PBMC; 10 μg/ml): 0.6250
PBMC survival, P vs DMSO at appropriate dilution (human PBMC; 100 μg/ml): 0.0019
foot pad edema (increase of foot pad thickness), P vs Control [2]: 0.0147
PHA-induced PBMC proliferation, P vs DMSO at appropriate dilution ([3]; 10 μg/ml): 0.7122
PHA-induced PBMC proliferation, P vs DMSO at appropriate dilution ([3]; 100 μg/ml): 0.0436

O=C1C[C@H](Cc2ccccc2)NC(=O)[C@@H]2CCCN2C(=O)[C@@H]2C=CCN2C(=O)[C@H](Cc2ccccc2)N1 [I-S] (cyclo(F[ΔPro]P[β3hF]))
air pouch exudate cell number, P vs Control [1]: 0.7275
PBMC survival, P vs DMSO at appropriate dilution (human PBMC; 10 μg/ml): 0.9753
PBMC survival, P vs DMSO at appropriate dilution (human PBMC; 100 μg/ml): 1.0000
foot pad edema (increase of foot pad thickness), P vs Control [2]: 1.0000
PHA-induced PBMC proliferation, P vs DMSO at appropriate dilution ([3]; 10 μg/ml): 0.0275
PHA-induced PBMC proliferation, P vs DMSO at appropriate dilution ([3]; 100 μg/ml): 0.0001

O=C1N[C@@H](Cc2ccccc2)CC(=O)N2Cc3ccccc3C[C@H]2C(=O)N2CCC[C@H]2C(=O)N2CCC[C@@H]12 [I-AA] (cyclo(PP[β3hF][Tic]))
air pouch exudate cell number, P vs Control [1]: 0.3502
PBMC survival, P vs DMSO at appropriate dilution (human PBMC; 10 μg/ml): 0.9997
PBMC survival, P vs DMSO at appropriate dilution (human PBMC; 100 μg/ml): 0.9978
foot pad edema (increase of foot pad thickness), P vs Control [2]: 1.0000
PHA-induced PBMC proliferation, P vs DMSO at appropriate dilution ([3]; 100 μg/ml): 1.0000

O=C1C[C@H](Cc2ccccc2)NC(=O)[C@@H]2CCCN2C(=O)[C@@H]2C[C@@H]3CCCC[C@@H]3N2C(=O)[C@H](Cc2ccccc2)N1 [I-AD] (cyclo(F[Oic]P[β3hF]))
air pouch exudate cell number, P vs Control [1]: 0.0078
PBMC survival, P vs DMSO at appropriate dilution (human PBMC; 10 μg/ml): 1.0000
PBMC survival, P vs DMSO at appropriate dilution (human PBMC; 100 μg/ml): 0.9531
foot pad edema (increase of foot pad thickness), P vs Control [2]: 0.0528
PHA-induced PBMC proliferation, P vs DMSO at appropriate dilution ([3]; 100 μg/ml): 1.0000
